Test results reported in patent publication US11691960B2, “2-[thiophen-2-yl)formamido]-N-(phenyl)-2-methylpropanamide derivatives and the use thereof as medicament” (Boehringer Ingelheim International GmbH, priority 2020, dated 2023).

Experiments:
human androgen receptor = human androgen receptor (Homo sapiens (Human), UniProt P10275); test: Assay B: human androgen receptor luciferase reporter assay (Indigo Biosciences); assay type: cell-based; details: for Selectivity Assay B/Assay A: ratio IC50 androgen receptor / IC50 IDO1
Chain of human androgen receptor (P10275 whole entry): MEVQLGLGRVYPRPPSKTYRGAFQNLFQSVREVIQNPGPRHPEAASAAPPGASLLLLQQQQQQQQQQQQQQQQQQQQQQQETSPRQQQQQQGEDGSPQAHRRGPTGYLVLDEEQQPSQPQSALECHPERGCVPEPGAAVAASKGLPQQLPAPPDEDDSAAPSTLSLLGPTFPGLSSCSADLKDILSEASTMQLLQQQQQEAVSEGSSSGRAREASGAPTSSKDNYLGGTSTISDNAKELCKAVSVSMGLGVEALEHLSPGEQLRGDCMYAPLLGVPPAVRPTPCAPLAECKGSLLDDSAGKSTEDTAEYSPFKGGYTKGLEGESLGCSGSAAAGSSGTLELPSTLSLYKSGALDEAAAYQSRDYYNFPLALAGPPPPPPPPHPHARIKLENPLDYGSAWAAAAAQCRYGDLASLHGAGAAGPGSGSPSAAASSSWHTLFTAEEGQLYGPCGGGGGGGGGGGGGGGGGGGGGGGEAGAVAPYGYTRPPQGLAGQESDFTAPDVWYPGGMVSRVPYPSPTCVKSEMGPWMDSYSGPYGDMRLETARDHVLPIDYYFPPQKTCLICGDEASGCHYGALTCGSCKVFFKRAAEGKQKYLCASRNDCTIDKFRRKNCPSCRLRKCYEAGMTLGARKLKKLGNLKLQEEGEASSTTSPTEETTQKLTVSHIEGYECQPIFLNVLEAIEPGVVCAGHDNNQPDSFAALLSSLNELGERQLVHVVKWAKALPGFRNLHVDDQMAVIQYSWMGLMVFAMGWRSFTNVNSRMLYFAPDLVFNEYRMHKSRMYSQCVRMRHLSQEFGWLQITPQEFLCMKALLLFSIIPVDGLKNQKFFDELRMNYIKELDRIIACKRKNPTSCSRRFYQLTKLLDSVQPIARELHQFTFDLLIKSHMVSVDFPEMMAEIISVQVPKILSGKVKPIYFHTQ
From the text: Assay B. In Vitro Testing of Androgen Receptor Potency:
The human androgen receptor (AR) assay was run using Product #IB03001 from Indigo Biosciences. The cell line provided in this kit carries a reporter gene, induced upon AR stimulation. This reporter gene is cDNA encoding for beetle luciferase, a 62 kD protein originating from the North American firefly (Photinus pyralis). This luciferase catalyzes the mono-oxidation of D-luciferin yielding oxyluciferin, adenosine monophosphate, pyrophosphate, CO2, and photon emission. The luminescence intensity of the reaction is quantified using a luminometer.
To run the assay, the cells are thawed by adding pre-warmed cell recovery medium to each tube, then placed in a 37° C. water bath. 30000 viable cells in 200 μl are plated (collagen coated plates) and incubated at 37° C., ≥85% humidity, 5% CO2 for 24 hours. Media is replaced with compound screening medium. Cells are then challenged with 125 pM (EC80) 6a-Fl Testosterone and compounds are applied in half logarithmic dilutions from 10 μM to 10 nM. Assay plates are then incubated at 37° C., ≥85% humidity, 5% CO2 for 22-24 hours. Media is replaced with luciferase detection reagent and allowed 5 minutes to equilibrate prior to luminescence quantification.
Data Analysis consisted of calculating percentage of control between 100% (Negative control:6a-Fl Testosterone) and 0 (positive control: no 6a-FL Testosterone). Fitting of normalized values was made 4-Parameter sigmoidal binding curve (Log[conc]) vs. signal.

human Factor Xa = human Factor Xa (Homo sapiens (Human), UniProt P00742); test: Assay C: human Factor Xa chromogenic substrate assay; assay type: biochemical; details: for IC50: human Factor Xa 0.86 nM, chromogenic substrate S2765; for Selectivity Assay C/Assay A: ratio IC50 Factor Xa / IC50 IDO1
Chain of human Factor Xa (P00742 235-488): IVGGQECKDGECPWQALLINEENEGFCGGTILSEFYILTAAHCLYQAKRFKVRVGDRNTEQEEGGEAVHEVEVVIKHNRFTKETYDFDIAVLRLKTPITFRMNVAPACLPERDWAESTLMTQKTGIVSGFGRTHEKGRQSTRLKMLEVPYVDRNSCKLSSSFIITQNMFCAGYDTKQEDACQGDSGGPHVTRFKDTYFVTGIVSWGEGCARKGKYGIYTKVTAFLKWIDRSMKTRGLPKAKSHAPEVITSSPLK
Chain of human Factor Xa (P00742 41-179 partner): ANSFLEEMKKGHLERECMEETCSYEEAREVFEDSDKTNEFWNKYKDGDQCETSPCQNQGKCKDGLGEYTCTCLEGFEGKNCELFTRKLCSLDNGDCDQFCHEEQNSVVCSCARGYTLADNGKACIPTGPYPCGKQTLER
Procedure: Assay C. In Vitro Testing of Human Factor Xa Potency:
Measurement of active human Factor Xa using a specific chromogenic substrate which is labeled with a p-nitro-anilino group (pNA). The cleavage in between the binding of the peptide substrate and the pNA-group is followed by a color change, which can be detected at 405 nm. The amount of cleaved substrate is directly proportional to the amount of active Xa.
[…] (100 U) human Factor Xa (Enzyme Research Laboratories; HFXa1011) were solved in 0.444 ml H2O (Millipore), which accords to a stock solution of 19.28 μM or 225 U/ml. Further dilutions were made in the assay buffer (Tris 100 mM, NaCL 150 mM, adjusted to a pH of 7.8 with HCL, containing 0.1% BSA and 0.05% Tween20). 25 mg (1 vial) of the chromogenic substrate S2765 (Chromogenix; S2765) was solved in 3.5 ml H2O (Millipore) to achieve a stock solution of 10 mM.
Compounds were solved and diluted in DMSO where the final dilution in the assay is 1:10 resulting in a final concentration of 1% DMSO.
• the prefinal dilution step was 1:10 in the assay buffer containing 11% DMSO resulting in 10% DMSO • final dilution in the assay is 1:10 resulting in a final concentration of 1% DMSO
Compounds were tested at final concentrations of 10 μM to 0.003 nM or lower. 5 μl human factor Xa (final concentration 0.86 nM), 2 μl compound dilution or assay buffer (containing 10% DMSO) and 8 μl assay buffer were pipetted in triplicates into a 384-well plate and incubated in the Thermomix at 24° C. for 10 minutes.
After addition of 5 μl chromogenic substrate (final concentration 0.5 mM) the enzyme-substrate reaction started and the kinetic measurement with the SpectraMax Monochromator was started within 1-2 minutes. • Parameter of measurement: (Spectra ax, Monochromator) • Absorbance; 1.LM 405 nM • Kinetic: 16 min each 2nd minute (9 times) • Negative Control (NC) 5 μl human factor Xa+10 μl assay buffer+5 μl Substrate • Positive Control (PC): 5 μl human factor Xa+2 μl Nafamostat (commercially available, final concentration: 1 μM)+8 μl assay buffer+5 μl Substrate • Blank (optional): 15 μl assay buffer+5 μl Substrate
Calculation of IC50, KI and the % effect at the highest concentration (Ratio)
For the calculation the average of the Vmax-values in between 120 sec to 720 sec were taken.
A x/y-Plot was created: x=log (M, Compound); y=vmax (drfu/min)
The data were analyzed with the curve fitting model: log (inhibitor) vs. response—Variable slope (four parameters)
The results of this fit were Top, Bottom, Log (IC50, M), Hillslope and IC50 (M)

human hepatocytes = test: Assay D: metabolic stability in human hepatocytes; assay type: in vitro ADME; details: for Hepatocyte stability Assay D: human hepatocytes, 1 μM, % of liver blood flow, mean +− standard deviation
Procedure: Assay D. Assessment of Metabolic Stability in Human Hepatocytes
The metabolic degradation of the test compound is assayed in a hepatocyte suspension. After recovery from cryopreservation, human hepatocytes are incubated in Dulbecco's modified eagle medium supplemented with 3.5 μg glucagon/500 mL, 2.5 mg insulin/500 mL and 3.75 mg/500 mL hydrocortisone) containing 5% or 50% human serum or in absence of serum.
Following a 30 min preincubation in a cell culture incubator (37° C., 10% CO2), 5 μl of test compound solution (80 μM; derived from a 2 mM DMSO stock solution by dilution 1:25 with medium) are added into 395 μl hepatocyte suspension, resulting in a final cell density of 1 Mio cells/mL, a final test compound concentration of 1 μM, and a final DMSO concentration of 0.05%.
The cells are incubated for six hours (incubator, orbital shaker) and samples (25 μl) are removed from the incubation after 0, 0.5, 1, 2, 4 and 6 hours. Samples are transferred into acetonitrile and pelleted by centrifugation (5 min). The supernatant is transferred to a new 96-deepwell plate, evaporated under nitrogen and resuspended prior to analysis of decline of parent compound by HPLC-MS/MS.
CLint is calculated as follows: CL_INTRINSIC=k/CD×1000/60 k: slope of the regression line for parent decline [h^−1], CD: cell density of vital cells [10e6 cells/mL],
The calculated in vitro hepatic intrinsic clearance is scaled up to the intrinsic in vivo hepatic Clearance and used to predict hepatic in vivo blood clearance (CL) by the use of a liver model (well stirred model): CL_INTRINSIC_INVIVO [ml/min/kg]=(CL_INTRINSIC [μL/min/10e6 cells]×hepatocellularity [10e6 cells/g liver]×liver factor [g/kg bodyweight])/1000 CL[ml/min/kg]=CL_INTRINSIC_INVIVO [ml/min/kg]×hepatic blood flow [ml/min/kg]/(CL_INTRINSIC_INVIVO[ml/min/kg]+hepatic blood flow [ml/min/kg])
Results are expressed as percentage of hepatic blood flow: QH[%]=CL[ml/min/kg]/hepatic blood flow [ml/min/kg])
Hepatocellularity, human: 120×10e6 cells/g liver
Liver factor, human: 25.7 g/kg bodyweight
Blood flow, human: 20.7 ml/(min×kg)

Row | SMILES | IC50 (human androgen receptor; challenge with 125 pM (EC80) 6a-Fl Testosterone, mean +− standard deviation) | Selectivity Assay B/Assay A (human androgen receptor) | IC50 (human Factor Xa) | Selectivity Assay C/Assay A (human Factor Xa) | Hepatocyte stability Assay D (human hepatocytes) | antiandrogenic activity (in words) (human androgen receptor) | metabolic stability in human hepatocytes (in words) (human hepatocytes) | inhibition of the human Factor Xa enzyme (in words) (human Factor Xa)
1 | CC(C)(NC(=O)c1ccc(Br)s1)C(=O)Nc1ccc(Br)cc1 [Example 2, 2-[(5-bromothiophen-2-yl)formamido]-N-(4-bromophenyl)-2-methylpropanamide] | > 10 µM | >52 | > 10 µM | >52 | <4.1 % QH | – | – | –
2 | CC(C)(NC(=O)c1ccc(Br)s1)C(=O)Nc1ccc(Cl)c(F)c1 [Example 1, 2-[(5-bromothiophen-2-yl)formamido]-N-(4-chloro-3-fluorophenyl)-2-methylpropanamide] | – | 43 | > 10 µM | >57 | <4.1 % QH | – | – | –
3 | CC(C)(NC(=O)c1cccs1)C(=O)Nc1ccc(C#N)c(C(F)(F)F)c1 [WO98/22432 example 53] | – | 0.7 | – | – | – | have antiandrogenic activity | very low metabolic stability | –
4 | Cc1ccc(C(=O)NC(C)(C)C(=O)Nc2ccc(C#N)c(C(F)(F)F)c2)s1 [WO98/22432 example 86] | – | 4.9 | – | – | – | have antiandrogenic activity | very low metabolic stability | –
5 | CC1CCC(C)N1c1ccc(NC(=O)C(C)(C)NC(=O)c2ccc(Cl)s2)cc1 (stereo not shown) [WO2005/111013 Ex. 22] | – | – | 0.429 µM | 0.37 | – | – | medium metabolic stability | inhibits the human Factor Xa enzyme
